{
  "source": "patent US20020155084A1",
  "about": "“Nanoemulsion formulations” (The Regents of the University of the Michigan, priority 2000, published 2002)",
  "system": "hairy mouse skin",
  "conditions": "2:1 nanoemulsion, aqueous phase 0.05 M HEPES pH 7.4; 5 μg/ml inulin or 3 μg/ml tranexamic acid, FIG. 9",
  "data": [
    {"substance": "inulin", "values": [
      {"measurement": "marker permeation slope", "value": "0.233 % per hour per square centimeter"}
    ]}
  ]
}
